Measurements as given in PMC9102953, “New Derivatives of 5-Substituted Uracils: Potential Agents with a Wide Spectrum of Biological Activity” (Molecules, 2022).
Like-named read-outs stand apart in the source and are kept apart here.

Key:
[1] = tested on: HCoV-OC43; assay: Antiviral cytopathicity assay, HCoV-OC43 in HEL 299 cells; assay type: cell-based
[2] = tested on: respiratory syncytial virus (RSV) strain A Long; assay: microbe, parasite or virus in culture; assay type: cell-based; settings: for EC50: human respiratory syncytial virus, HEL 299, read-out: EC50 (μM) RSV A Long, HEL 299
[3] = tested on: yellow fever virus (YFV) strain 17 D; assay: microbe, parasite or virus in culture; assay type: cell-based; settings: for EC50: Yellow fever virus, Huh-7, read-out: EC50 (μM) YFV 17D, Huh7
[4] = in vitro; settings: human
[5] = in vitro; settings: human; remark: listed apart in the source
[6] = in vitro; settings: dog
[7] = tested on: a variety of RNA viruses; assay type: cell-based
[8] = tested on: HEL299, Huh 7 and MDCK cells
[9] = Betacoronavirus 1, OC43, HEL 299, read-out: EC50 (μM) HCoV-OC43, HEL 299
[10] = Betacoronavirus 1, OC43, HEL 299 cells, reduction of virus-induced cytopathicity by 50%, read-out: EC50 (μM) HCoV-OC43, HEL 299

| SMILES | melting point | EC50 [1, 9] | EC50 [2] | EC50 [3] | CC50 [4] | CC50 [5] | CC50 [6] | antiviral activity in the screening (in words) [7] | cytotoxicity in the tested cell lines (in words) [8] | biological activity against HCoV OC43 (in words) [1] | inhibition of respiratory syncytial virus RSV (strain A Long) (in words) [2] | activity against yellow fever virus YFV (strain 17D) (in words) [3] | EC50 [1, 10] |
| --- | --- | --- | --- | --- | --- | --- | --- | --- | --- | --- | --- | --- | --- |
| O=c1[nH]cc(N2CCc3ccccc3C2)c(=O)[nH]1 | 311 to 312 °C | – | – | – | – | – | – | – | – | – | – | – | – |
| O=c1[nH]c(=O)n(C2C=CC(O)C2)cc1N1CCCCCC1 (racemic) [(±)-3a, (±)-1-(4′-Hydroxycyclopent-2′-en-1′-yl)-5-(azepan-1″-yl)uracil] | – | > 100 µM | > 100 µM | > 100 µM | > 100 µM | > 100 µM | > 100 µM | – | – | – | – | – | – |
| O=c1[nH]c(=O)n(C2C=CC(O)C2)cc1N1CCN(c2ccccc2)CC1 (racemic) [(±)-3b, (±)-1-(4′-Hydroxycyclopent-2′-en-1′-yl)-5-(4″-phenylpiperazin-1″-yl)uracil] | – | > 100 µM | > 100 µM | > 100 µM | > 100 µM | > 100 µM | > 100 µM | – | – | – | – | – | – |
| CCCCCCc1ccc(Nc2cn(C3C=CC(O)C3)c(=O)[nH]c2=O)cc1 (racemic) [(±)-3d, (±)-1-(4′-Hydroxycyclopent-2′-en-1′-yl)-5-((4′-hexylphenyl)amino)uracil] | – | > 100 µM | > 100 µM | > 100 µM | – | – | 30 µM | did not show any activity | marked cytotoxicity | – | – | – | – |
| CC(C)(C)c1ccc(Nc2cn(C3C=CC(O)C3)c(=O)[nH]c2=O)cc1 (racemic) [(±)-3e, (±)-1-(4′-Hydroxycyclopent-2′-en-1′-yl)-5-((4″-tert-butyl)phenylamino)uracil] | – | > 100 µM | > 100 µM | > 100 µM | > 100 µM | > 100 µM | 63 µM | did not show any activity | marked cytotoxicity | – | – | – | – |
| CCCCCCCc1ccc(Nc2cn(C3C=CC(O)C3)c(=O)[nH]c2=O)cc1 (racemic) [(±)-3f, (±)-4′-Hydroxycyclopent-2′-en-1′-yl)-5-((4′′-heptylphenyl)amino)uracil] | – | 22.4 µM | > 100 µM | > 100 µM | > 100 µM | > 100 µM | 70.4 µM | – | – | moderate biological activity | – | – | – |
| CC(C)c1ccc(Nc2cn(C3C=CC(O)C3)c(=O)[nH]c2=O)cc1 (racemic) [(±)-3g, (±)-1-(4′-Hydroxycyclopent-2′-en-1′-yl)-5-((4″-isopropylphenyl)amino)uracil] | – | > 100 µM | > 100 µM | > 100 µM | > 100 µM | > 100 µM | > 100 µM | – | – | – | – | – | – |
| CCCCCCCOc1ccc(Nc2cn(C3C=CC(O)C3)c(=O)[nH]c2=O)cc1 (racemic) [(±)-3i, (±)-1-(4′-Hydroxycyclopent-2′-en-1′-yl)-5-((4″-(heptyloxy)phenyl)amino)uracil] | – | 36.8 µM | > 100 µM | > 100 µM | – | – | 34 µM | – | – | moderate biological activity | – | – | – |
| O=c1c(N2CCCCCC2)cn(C2C=CC(O)C2)c(=O)n1C1C=CC(O)C1 (racemic) [(±)-4a, (±)-1-(4′-hydroxycyclopent-2′-en-1′-yl)-3-(4‴-hydroxycyclopent-2‴-en-1‴-yl)-5-(azepan-1″-yl)uracil] | – | > 100 µM | > 100 µM | > 100 µM | > 100 µM | > 100 µM | > 100 µM | – | – | – | – | – | – |
| O=c1c(N2CCN(c3ccccc3)CC2)cn(C2C=CC(O)C2)c(=O)n1C1C=CC(O)C1 (racemic) [(±)-4b, (±)-1-(4′-hydroxycyclopent-2′-en-1′-yl)-3-(4‴-hydroxycyclopent-2‴-en-1‴-yl)-5-(4″-phenylpiperazin-1″-yl)uracil] | – | > 100 µM | > 100 µM | > 100 µM | > 100 µM | > 100 µM | > 100 µM | – | – | – | – | – | – |
| CCCCCCc1ccc(Nc2cn(C3C=CC(O)C3)c(=O)n(C3C=CC(O)C3)c2=O)cc1 (racemic) [(±)-4d, (±)-1-(4′-hydroxycyclopent-2′-en-1′-yl)-3-(4‴-hydroxycyclopent-2‴-en-1‴-yl)-5-(-((4″-hexylphenyl)amino)uracil] | – | 28.7 µM | > 100 µM | > 100 µM | > 100 µM | > 100 µM | 51.2 µM | – | – | moderate biological activity | – | – | – |
| CCCCCCCc1ccc(Nc2cn(C3C=CC(O)C3)c(=O)n(C3C=CC(O)C3)c2=O)cc1 (racemic) [(±)-4f, (±)-1-(4′-hydroxycyclopent-2′-en-1′-yl)-3-(4‴-hydroxycyclopent-2‴-en-1‴-yl)-5-(-((4″-heptylphenyl)amino)uracil] | – | > 100 µM | > 100 µM | > 100 µM | > 100 µM | > 100 µM | > 100 µM | – | – | – | – | – | – |
| CCCCOc1ccc(Oc2cn(C3C=CC(O)C3)c(=O)[nH]c2=O)cc1 (racemic) [(±)-10b, (±)-1-(4′-Hydroxycyclopent-2′-en-1′-yl)-5-(4″-butoxyphenoxy)uracil] | – | > 100 µM | > 100 µM | > 100 µM | > 100 µM | > 100 µM | > 100 µM | – | – | – | – | – | – |
| O=c1[nH]c(=O)n(C2C=CC(O)C2)cc1Oc1ccc(Cl)cc1 (racemic) [(±)-10c, (±)-1-(4′-Hydroxycyclopent-2′-en-1′-yl)-5-(4″-chlorophenoxy)uracil] | – | > 100 µM | > 100 µM | > 100 µM | > 100 µM | > 100 µM | > 100 µM | – | – | – | – | – | – |
| CC(C)(C)c1ccc(Oc2cn(C3C=CC(O)C3)c(=O)[nH]c2=O)cc1 (racemic) [(±)-10d, (±)-1-(4′-Hydroxycyclopent-2′-en-1′-yl)-5-(4″-(tert-butyl)phenoxy)uracil] | – | > 100 µM | > 100 µM | > 100 µM | > 100 µM | > 100 µM | > 100 µM | – | – | – | – | – | – |
| Cc1cc(C)cc(Oc2cn(C3C=CC(O)C3)c(=O)n(C3C=CC(O)C3)c2=O)c1 (racemic) [(±)-11a, (±)-1-(4′-hydroxycyclopent-2′-en-1′-yl)-3-(4‴-hydroxycyclopent-2‴-en-1‴-yl)-5-(3″,5″-dimethylphenoxy)uracil] | – | 29.8 µM | 28.7 µM | > 100 µM | – | – | 39.3 µM | – | – | moderate biological activity | inhibited | – | – |
| CC(C)(C)c1ccc(Oc2cn(C3C=CC(O)C3)c(=O)n(C3C=CC(O)C3)c2=O)cc1 (racemic) [(±)-11d, (±)-1-(4′-hydroxycyclopent-2′-en-1′-yl)-3-(4‴-hydroxycyclopent-2‴-en-1‴-yl)-5-(4″-(tert-butyl)phenoxy)uracil] | – | > 100 µM | > 100 µM | 47.9 µM | – | – | 40.3 µM | – | – | – | – | demonstrated activity | – |
| O=c1[nH]cc(N2CCCCCC2)c(=O)[nH]1 [Compound 2a, 5-(Azepan-1-yl)uracil] | – | – | > 100 µM | > 100 µM | > 100 µM | > 100 µM | > 100 µM | – | – | – | – | – | > 100 µM |
| O=c1[nH]cc(N2CCN(c3ccccc3)CC2)c(=O)[nH]1 [Compound 2b, 5-(4-Phenylpiperazin-1-yl)uracil] | 352 to 354.5 °C | – | > 100 µM | > 100 µM | > 100 µM | > 100 µM | > 100 µM | – | – | – | – | – | > 100 µM |
| CCCCCCc1ccc(Nc2c[nH]c(=O)[nH]c2=O)cc1 [Compound 2d, 5-((4′-Hexylphenyl)amino)uracil] | 332 to 333 °C | – | > 100 µM | > 100 µM | > 100 µM | > 100 µM | > 100 µM | – | – | – | – | – | > 100 µM |
| CC(C)(C)c1ccc(Nc2c[nH]c(=O)[nH]c2=O)cc1 [Compound 2e, 5-((4′-tert-Butylphenyl)amino)uracil] | 354.5 to 356.5 °C | – | > 100 µM | > 100 µM | > 100 µM | > 100 µM | > 100 µM | – | – | – | – | – | > 100 µM |
| Cc1cc(C)cc(Oc2c[nH]c(=O)[nH]c2=O)c1 [Compound 5a, 5-(3,5-Dimethylphenoxy)uracil] | 293 to 295 °C | – | > 100 µM | > 100 µM | > 100 µM | > 100 µM | > 100 µM | – | – | – | – | – | > 100 µM |
| CCCCOc1ccc(Oc2c[nH]c(=O)[nH]c2=O)cc1 [Compound 5b, 5-(4-Butoxyphenoxy)uracil] | 271 to 274 °C | – | > 100 µM | > 100 µM | > 100 µM | > 100 µM | > 100 µM | – | – | – | – | – | > 100 µM |
| O=c1[nH]cc(Oc2ccc(Cl)cc2)c(=O)[nH]1 [Compound 5c, 5-(4-Chlorophenoxy)uracil] | 331 to 333 °C | – | > 100 µM | > 100 µM | > 100 µM | > 100 µM | > 100 µM | – | – | – | – | – | > 100 µM |
| CC(C)(C)c1ccc(Oc2c[nH]c(=O)[nH]c2=O)cc1 [Compound 5d, 5-(4-tert-Butylphenoxy)uracil] | 273 to 275 °C | – | > 100 µM | > 100 µM | > 100 µM | > 100 µM | > 100 µM | – | – | – | – | – | > 100 µM |
| CCC(CC)COC(=O)[C@H](C)N[P@](=O)(OC[C@H]1O[C@@](C#N)(c2ccc3c(N)ncnn23)[C@H](O)[C@@H]1O)Oc1ccccc1 [Remdesivir, reference compound] | – | 0.03 µM | 0.01 µM | – | > 10 µM | > 10 µM | – | – | – | – | – | – | – |
